The subject of assay [1] is HCT116 isogenic IDH1-R132C mutant cells. Put plainly: Cellular 2-HG assay using HCT116 mutant IDH1 cells (R132C), RapidFire mass spectrometry. To be noted: Homo sapiens, read-out: HCT116 IDH1 R132C IC50 (Range). In kind it is cell-based.
Assay [2] concerns the target IDH1-R132H recombinant protein (Homo sapiens (Human), UniProt O75874, R132H). Put plainly: IDH1-R132H enzymatic assay (inhibition of NADPH consumption, diaphorase/resazurin readout). In kind it is biochemical. To be noted: read-out: Enzyme IDH1 R132H IC50 (Range). In short, it runs like this:
(§1)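 Compound was preincubated 15 min at 25 °C with 30 nM IDH1-R132H or 10 nM IDH1-R132C in Tris pH 7.5 buffer with MgCl2, BSA and Triton X-100. Reaction with 2 mM α-ketoglutarate and 20 μM NADPH (solution concentrations) ran 45 min at 25 °C. Remaining NADPH was detected via diaphorase/resazurin fluorescence (ex 535/em 590 nm), and IC50 came from four-parameter fits.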
(In general: The colour change of resazurin is a common sign of viable cells or microbes.)

Assay [3] concerns the target IDH1-R132C recombinant protein (Homo sapiens (Human), UniProt O75874, R132C). Kind of assay: IDH1-R132C enzymatic assay (inhibition of NADPH consumption, diaphorase/resazurin readout). The format is biochemical. Particulars: read-out: Enzyme IDH1 R132C IC50 (Range). The essentials: as §1
In assay [4] the test system is HCT116 isogenic IDH1-R132H mutant cells. Put plainly: Cellular 2-HG assay using HCT116 mutant IDH1 cells (R132H), RapidFire mass spectrometry. In kind it is cell-based. To be noted: Homo sapiens, read-out: HCT116 IDH1 R132H IC50 (Range).
Where [5] appears, read: HCT-116, cellular 2-HG level, HCT116 IDH1-R132C cells, 24 hours.
[6] abbreviates: HCT-116, cellular 2-HG level, HCT116 IDH1-R132H cells, 24 hours.

This passage reports IC50 results from patent US10280150B2 (FORMA TM2, Inc., priority 2014, dated 2019).

SMILES strings stand for the structures. Read-outs that look alike come from different tables or passages of the source.

Sequence of IDH1-R132H recombinant protein (O75874 whole entry R132H): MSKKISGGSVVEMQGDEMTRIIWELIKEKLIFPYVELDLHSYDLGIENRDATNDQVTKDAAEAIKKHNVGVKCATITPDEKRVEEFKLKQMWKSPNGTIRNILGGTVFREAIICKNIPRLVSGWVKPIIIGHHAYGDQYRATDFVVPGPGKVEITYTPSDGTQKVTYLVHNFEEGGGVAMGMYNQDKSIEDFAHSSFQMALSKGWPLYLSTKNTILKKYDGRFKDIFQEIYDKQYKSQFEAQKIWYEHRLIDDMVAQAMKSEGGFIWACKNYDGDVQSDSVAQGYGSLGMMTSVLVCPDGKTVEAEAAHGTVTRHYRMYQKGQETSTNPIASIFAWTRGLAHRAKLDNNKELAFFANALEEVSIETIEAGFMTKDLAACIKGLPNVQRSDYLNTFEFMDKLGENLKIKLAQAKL
Sequence of IDH1-R132C recombinant protein (O75874 whole entry R132C): as the sequence (O75874 whole entry R132H) above, with H132C counted along it

For the compound `C[C@H](Nc1nccc(NC(=O)C2CC2)n1)c1cc2cc(Cl)c(F)cc2[nH]c1=O` [Compound I-180, (S)—N-(2-((1-(6-chloro-7-fluoro-2-oxo-1,2-dihydroquinolin-3-yl)ethyl)amino)pyrimidin-4-yl)cyclopropanecarboxamide], the IC50 in assay [1] (setting [5]), in assay [2], in assay [3] and in assay [4] (setting [6]) was 100 to 1000 nM each time.
Regarding `COc1nc(N[C@@H](C)c2cc3cc(Cl)c(F)cc3[nH]c2=O)ncc1C#N` [Compound I-181], the IC50 (as a rule, the concentration at which inhibition is half-maximal) in assay [1] (HCT-116, 24 h) is 100 to 1000 nM; in assay [2], below 100 nM; in assay [3], 100 to 1000 nM; in assay [4] (HCT-116, 24 h), 100 to 1000 nM.
With `CC(=O)Nc1ccnc(N[C@@H](C)c2cc3cc(Cl)cnc3[nH]c2=O)n1` [Compound I-182], the IC50 in assay [1] (setting [5]) is 100 to 1000 nM; in assay [2] it was below 100 nM; in assay [3] it was 100 to 1000 nM; in assay [4] (setting [6]), 100 to 1000 nM.
In the case of `C[C@H](Nc1nccc(-n2nnnc2C2CC2)n1)c1cc2cc(Cl)cnc2[nH]c1=O` [Compound I-184], the IC50 in assay [1] (setting [5]), in assay [2], in assay [3] and in assay [4] (setting [6]) was 100 to 1000 nM each time.
